Results from PMC10920779, “Targeting P2Y14R protects against necroptosis of intestinal epithelial cells through PKA/CREB/RIPK1 axis in ulcerative colitis” (Nature Communications, 2024).
“And” between values parts separate entries of the source, which are not always exact repeats. Equal entries are not always repeated.

Tests used:
[1] = tested on: HCT-116 cells; experiment: TSZ-induced necroptosis in HCT-116 cells (PI/Hoechst staining); format: cell-based, human
Method: (§1) Necroptosis was induced by pretreatment with TNF‐α (20 ng·mL^−1) plus z‐VAD‐fmk (20 μM) and Smac mimetic (BV6, 2 μM) for 8 h, then stained cells with hematoxylin/eosin. For PI/Hoechst staining, cells were stained with PI and Hoechst for 20 min, then photographed with a fluorescence microscope and at least 300 cells were counted. The ratio of PI positive cells (%) = (PI positive cells) / (Hoechst positive cells) × 100%. For cell viability assay, CCK8 was added to the well and incubated for 1 − 2 h and then OD450 was measured using a multi-mode microplate reader (Cytation5, BioTek).

[2] = tested on: PKA and CREB phosphorylation; experiment: Immunoblotting of p-PKA and p-CREB in HT-29 cells; format: cell-based, human
Method: (§2) Tissues and cells were lysed using RIPA lysis buffer (Beyotime Biotechnology) containing protease and phosphatase inhibitor, homogenated, and centrifuged. The protein concentration was determined by BCA protein assay (Beyotime Biotechnology). Equal concentrations of proteins were separated in a 10% SDS-PAGE and transferred to PVDF membrane. […] Densitometry was quantified using ImageJ software.

[3] = tested on: MLKL phosphorylation; experiment: Immunoblotting of p-MLKL/MLKL in HCT-116 cells; format: cell-based, human; settings: P2Y14R-OE cells + TSZ, replicates, supplement Figure 2g
Method: as §2

[4] = tested on: MLKL phosphorylation; experiment: Immunoblotting of p-MLKL/MLKL in HT-29 cells; format: cell-based, human; settings: P2Y14R-OE cells + TSZ, replicates, supplement Figure 2e
Method: as §2

[5] = tested on: Ripk1 mRNA; experiment: RT-PCR of Ripk1 mRNA in HCT-116 cells; format: cell-based, human
Excerpt: (§3) Total RNA was extracted from cells or colonic tissues using Trizol (Thermo) under the manufacturer’s instructions. First strand cDNA was synthesized using the PrimeScript RT Reagent Kit (480, Abm). SYBR Green Master Mix reagents (Q331-02, Vazyme) and primer mixtures (Table S1) were used for the real-time PCR. […] The procedure was as described in the kit provided by the manufacturer. Briefly, isolated IECs were fixed by 1% formaldehyde, and fragmented by sonication. CREB was then used for immunoprecipitation. After washing and reverse-crosslinking, the precipitated DNA was amplified by primers and quantified by the qPCR. Primer sequences can be found in Supplementary Table 1.

[6] = tested on: CREB binding to Ripk1 promoter; experiment: ChIP-qPCR with anti-CREB on Ripk1 gene promoter in HCT-116 cells; format: cell-based, human
Excerpt: as §3

[7] = tested on: Ripk1 mRNA; experiment: RT-PCR of Ripk1 mRNA in HT-29 cells; format: cell-based, human
Excerpt: as §3

[8] = tested on: intestinal organoids; experiment: TSZ-induced necroptosis in intestinal organoids (PI staining); format: cell-based, mouse; settings: P2Y14Rfl/fl organoids, UDPG+TSZ
Method: Crypts were released from the murine small intestine by incubation for 30 min at 4°C in PBS containing 2 mM EDTA. Isolated crypts were counted and pelleted. […] Organoid media were changed every 3 days. […] Dead cell imaging in live organoids was performed on the fluorescence microscope (BX53, Olympus Optical), and analyzed by image j.

[9] = tested on: HT-29 cells; experiment: TSZ-induced necroptosis in HT-29 cells (CCK8 viability, PI/Hoechst, H&E staining); format: cell-based, human
Method: as §1

[10] = tested on: PKA and CREB phosphorylation; experiment: Immunoblotting of p-PKA and p-CREB in HCT-116 cells; format: cell-based, human
Method: as §2

[11] = tested on: Ripk1 mRNA; experiment: RT-PCR of Ripk1 mRNA in intestinal epithelial cells of experimental colitis mice; format: in vivo, mouse; settings: Figure 7i, group TSZ+UDPG+Nec-1s
Method: Colon tissues derived from the euthanized by carbon dioxide inhalation mice were opened longitudinally and washed in pre-cooling PBS for three times. Then, the tissues were cut into 3 mm^2 pieces and incubated with 5 mM EDTA solution in PBS on a constant temperature shaker at 200 rpm for 25 min at 37°C. Then, let it stand at room temperature for 30 seconds and collected the supernatant. Next, repeated the above process once. Supernatants from the above step were combined and centrifuged at 500 g for 8 min. Abandon the supernatants and obtain IECs.
as §3

[12] = tested on: CREB binding to Ripk1 promoter; experiment: ChIP-qPCR with anti-CREB on Ripk1 gene promoter in HT-29 cells; format: cell-based, human
Excerpt: as §3

[13] = HCT-116 cells, UDPG+TSZ, pre-treatment
[14] = HT-29 cells, UDPG+TSZ, pre-treatment

With `CN1C(=O)NC(Cc2c[nH]c3c(Cl)cccc23)C1=O` (centres unmarked) [Nec-1s] the “UDP-glucose derived damage on TSZ-stimulated necroptosis” value ([1]; HCT-116 cells, UDPG+TSZ) was “remarkably attenuated the UDP-glucose derived damage on TSZ-stimulated necroptosis”, the “PI positive (%)” value ([1]; P2Y14R-OE cells + TSZ, replicates, supplement Figure 2f) was 1.2% and 1.6% and 3.0% and the TSZ-stimulated necroptosis ([1]; P2Y14R-overexpression HCT-116 cells, pre-treated) was “alleviated this phenomenon”. For the same molecule, the “Phosphorylation level of PKA/CREB pathway” value ([2]; UDPG+TSZ) was “did not affect the phosphorylation level of PKA/CREB pathway”, the P-CREB/CREB ([2]; added to UDPG+TSZ, Figure 5k) was 0.2673 and 0.2178 and 0.2551 and 0.2611 and 0.3759 and the P-MLKL/MLKL [3] was 2.175 and 2.507 and 2.289 and 2.573 and 2.48. The P-MLKL/MLKL [4] was 2.79 and 2.6518 and 3.608 and 1.739 and 2.51, the “Ripk1 transcript (mRNA)” value [5, 13] was “showed no effect” and the “Expression of Ripk1 in HCT-116 cell, 2^△△CT” value ([5]; added to TSZ+UDPG) was 2.77 and 2.8504 and 2.771 and 2.541 and 2.7034. For the same molecule, the “CREB binding Ripk1 promoter” value ([6]; Figure 5p, added to TSZ+UDPG) was 42.22% and 33.74% and 27.53%, the “Decrease of binding between CREB and Ripk1 promoter (ChIP)” value [6, 13] was “did not affect this process” and the “Ripk1 transcript (mRNA)” value [7, 14] was “showed no effect”. For the same molecule, the “Expression of Ripk1 in HT-29 cell, 2^△△CT” value ([7]; added to TSZ+UDPG) was 3.657 and 4.786 and 3.641 and 3.399 and 4.214 and 3.302, the “UDPG-increased TSZ necroptosis in organoids” value [8] was “remarkably attenuated this damage” and the “UDP-glucose derived damage on TSZ-stimulated necroptosis” value ([9]; HT-29 cells, UDPG+TSZ) was “remarkably attenuated the UDP-glucose derived damage on TSZ-stimulated necroptosis”. The Cell viability ([9]; P2Y14R-OE cells + TSZ, replicates) was 99.7919 and 100.274 and 99.3783 and 100.966 and 100.911 and 101.005, the “PI positive (%)” value ([9]; P2Y14R-OE cells + TSZ, replicates, supplement Figure 2c) was 6.21% and 5.544% and 2.585% and the TSZ-stimulated necroptosis ([9]; P2Y14R-overexpression HT-29 cells, 1h pre-treatment, TSZ 8 h) was “alleviated TSZ stimulated IECs necroptosis”. The P-PKA/PKA ([10]; Figure 5n, second block, added to UDPG+TSZ) was 0.2244 and 0.2706 and 0.2071 and 0.4048 and 0.2633, the “Phosphorylation level of PKA/CREB pathway” value ([10]; UDPG+TSZ) was “did not affect the phosphorylation level of PKA/CREB pathway” and the “Expression of Ripk1 in IEC, 2^△△CT” value [11] was 1.11 and 1.102 and 0.9517 and 0.9698 and 1.16. The “CREB binding Ripk1 promoter” value ([12]; Figure 5m, added to TSZ+UDPG) was 4.90% and 6.57% and 1.83% and the “Decrease of binding between CREB and Ripk1 promoter (ChIP)” value [12, 14] was “did not affect this process”.
